Reference: patent publication US12643867B2, “Compositions and uses thereof” (University of Virginia Patent Foundation, priority 2017, dated 2026)
Each block holds one compound with its values, some of them ahead of it.

What was measured:
H82 cells [1] = experiment: Cell Counts (Trypan Blue); format: cell-based; settings: 48 hrs; ritanserin 10 μM
Description: (§1) Cell Counts. Tumor cells were plated in 60 mm plates at a density of 100.000 cells/mL (A549. H1650) or 200,000 cells/mL (H82) and a volume of 3.5 mL/plate. Cells were treated with inhibitors at the indicated concentrations (final DMSO concentration of 0.5%) for 48 hrs at 37° C. under 5% CO2. After incubation, adherent cells were washed and detached with trypsin and all cells were collected and concentrated by spinning at 400×g for 3 min followed by aspiration of media. Cells were resuspended in […] Trypan Blue and 10 μL of this solution counted via a hemocytometer. Dead cells were excluded from all counts. Data were normalized to DMSO-treated wells and significance values determined with one-way ANOVA.

H1650 cells [2] = experiment: Cell Counts (Trypan Blue); format: cell-based; settings: 48 hrs; ritanserin 10 μM
Description: as §1

A549 cells [3] = experiment: Cell Counts (Trypan Blue); format: cell-based; settings: 48 hrs; ritanserin 10 μM
Description: as §1

H82 cells [4] = experiment: CaspaseGlo 3/7 assay; format: cell-based; settings: 24 hours
Description: (§2) Caspase Glo Assays. Assays were performed as directed by the manufacturer (Promega). Briefly, tumor cells were plated in black tissue-culture treated transparent-bottom 96 well plates at a density of 200,000 cells/mL (A549, H1650) or 400,000 cells/mL (H82) in a volume of 50 μL/well. Cells were treated with inhibitors at the indicated concentrations (final DMSO concentration of 0.5%) for 24 hrs at 37° C. under 5% CO2. Afterwards, 50 μL of the prepared CaspaseGlo reagent was added to each well. The reaction was allowed to proceed at 37° C. under 5% CO2 for 1 hr, at which point the cells were shaken in an orbital shaker at 500 rpm for 60 s and then luminescence was read for each well. Data were normalized to DMSO-treated wells and significance values determined with one-way ANOVA.

H1650 cells [5] = experiment: CaspaseGlo 3/7 assay; format: cell-based; settings: 24 hours
Description: as §2

A549 cells [6] = experiment: CaspaseGlo 3/7 assay; format: cell-based; settings: 24 hours
Description: as §2

CRAF = molecular target: T1, CRAF (Homo sapiens, UniProt P04049); experiment: ATP acyl phosphate chemical proteomics in lung cancer cell proteomes; format: binding; settings: for CRAF ATP acyl-phosphate labeling response (words, FIG. 20): H82 and HEK293T lysates, 100 μM Rit, 1 mM RF001
T1 construct: measure selectivity of compounds against native kinases detected in lung cancer proteomes; endogenous in cells; host or cells: H82 small cell lung cancer (and HEK293T) cell lysates; CRAF not detected in A549
Description: LC-MS analysis of SILAC samples using ATP acyl phosphates. Quantitative chemoproteomics was performed as previously described (Franks et al., 2017; McCloud et al., 2018).
Computational Methods. Data for A549 and H82 cell lines were searched with IP2 and manually validated using the methods previously described (Franks et al., 2017). Data for Desthiobiotin-tagged ATP acyl-phosphate probes and ATP competitive peptides were compared and clustered. Ritanserin and ketanserin inhibition profiles were compared using SILAC ratios and normalized to DMSO.
Based on previous chemical proteomics (Franks, 2017), it was hypothesized that ritanserin is functioning as a kinase inhibitor to mediate cytotoxicity in the lung cancer cell models. […] For these studies, NSCLC and SCLC cells were cultured in isotopically light and heavy amino acids to enable quantitative chemical proteomics (Chang. 2015) by stable isotope labeling with amino acids in cell culture (SILAC, FIG. 17A). […] After probe labeling, light and heavy proteomes were combined, digested with trypsin protease, and desthiobiotin-modified peptides enriched by avidin affinity chromatography and analyzed by LC-MS/MS to identify and quantify isotopically tagged active-site peptides from native kinases as previously described(Franks, 2017) (FIG. 17A).
To further confirm that ritanserin is a CRAF inhibitor, a targeted parallel reaction monitoring method (PRM) was developed to evaluate compound activity against CRAF and other members of the RAF family (ARAF and BRAF). Targeted PRM was needed because of the low abundance of CRAF compared with ARAF and BRAF). […] Ritanserin activity was also measured against RAF kinases in A549 proteomes using the targeted LC-MS method. […] The data further support previous findings that this RAF member is enriched in SCLC cells (REF).

[7] = humans, cited from earlier work
recombinant RAF1 = molecular target: T2, recombinant RAF1 (Homo sapiens, UniProt P04049); experiment: RAF1 (CRAF) substrate assay; format: biochemical; settings: RAF1-HEK293T proteomes
T2 construct: expressed in transfected cells; host or cells: HEK293T
Description: Given the potential for indirect inhibitory effects in the competition studies in lysates, ritanserin activity was tested in a CRAF substrate assay. Ritanserin inhibition was measured against recombinant RAF1 using commercial substrate assays. […] RAF1 was overexpressed in HEK293T cells and measured recombinant RAF1 activity by comparing with non-transfected HEK293T (i.e. mock) proteomes.

H82 cells [8] = experiment: WST-1 Cell Proliferation Assay; format: cell-based; settings: for cell viability (WST-1), words: ritanserin, ketanserin 5-50 μM, staurosporine 1 μM
Description: (§3) WST-1 Cell Proliferation Assays. Tumor cells were plated in transparent tissue-culture treated 96-well plates at a density of 100,000 cells/mL (A549, H1650) or 200,000 cells/mL (H82) in a volume of 100 μL per well. Cells were treated with dimethyl sulfoxide (DMSO) vehicle or inhibitors dissolved in DMSO at the indicated concentrations (final DMSO concentration of 0.5%). Cells were allowed to grow for indicated times at 37° C. under 5% CO2. Afterwards, equal parts of WST-1 developer reagent and electron mediator solution were mixed and 10 μL of the resulting solution (‘WST-1 reagent’) were added to each well. Plates were shaken in an orbital shaker for 60 s and then returned to the incubator for two hrs. Plates were again shaken followed measurement of absorbance at 450 nm. Data were normalized to DMSO-treated wells and significance values determined with one-way ANOVA.

H1650 cells [9] = experiment: WST-1 Cell Proliferation Assay; format: cell-based; settings: for cell viability (WST-1), words: ritanserin, ketanserin 5-50 μM, staurosporine 1 μM
Description: as §3

A549 cells [10] = experiment: WST-1 Cell Proliferation Assay; format: cell-based; settings: for cell viability (WST-1), words: ritanserin, ketanserin 5-50 μM, staurosporine 1 μM
Description: as §3

T1 sequence (P04049 whole entry): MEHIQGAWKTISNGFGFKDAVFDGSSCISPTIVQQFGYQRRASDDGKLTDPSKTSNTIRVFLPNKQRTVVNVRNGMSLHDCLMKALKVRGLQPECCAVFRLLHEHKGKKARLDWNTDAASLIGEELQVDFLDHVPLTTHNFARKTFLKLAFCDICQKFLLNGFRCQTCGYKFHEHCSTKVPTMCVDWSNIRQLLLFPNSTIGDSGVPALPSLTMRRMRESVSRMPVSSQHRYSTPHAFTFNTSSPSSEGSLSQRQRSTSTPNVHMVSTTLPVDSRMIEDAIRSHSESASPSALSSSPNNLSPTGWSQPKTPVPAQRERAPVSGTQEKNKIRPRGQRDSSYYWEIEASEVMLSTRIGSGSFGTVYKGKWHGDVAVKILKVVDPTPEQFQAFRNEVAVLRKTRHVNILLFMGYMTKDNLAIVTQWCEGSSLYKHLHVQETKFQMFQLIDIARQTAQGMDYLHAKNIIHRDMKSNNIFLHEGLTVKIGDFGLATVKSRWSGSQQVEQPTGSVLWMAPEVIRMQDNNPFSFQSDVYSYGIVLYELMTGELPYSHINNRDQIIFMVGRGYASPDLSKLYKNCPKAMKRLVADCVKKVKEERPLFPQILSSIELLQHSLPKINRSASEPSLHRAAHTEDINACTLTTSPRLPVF
T2 sequence (P04049 whole entry): as above

SMILES: Cc1nc2sccn2c(=O)c1CCN1CCC(=C(c2ccc(F)cc2)c2ccc(F)cc2)CC1 [Ritanserin]
cell killing (live cell counts) (H82 cells [1]): ~70%
cell killing (live cell counts) (H1650 cells [2]): ~70%
cell killing (live cell counts) (A549 cells [3]): ~70%
caspase 3/7 activity (H82 cells [4]): comparable activation of caspase 3/7 compared with staurosporine
caspase 3/7 activity (H1650 cells [5]): comparable activation of caspase 3/7 compared with staurosporine
caspase 3/7 activity (A549 cells [6]): lower degree of activation
kinase target by SILAC ratio criterion (CRAF; 100 μM, A549 and H82 proteomes): most potent targets
CRAF ATP acyl-phosphate labeling response (words, FIG. 20) (CRAF): inactivates CRAF
activity by targeted PRM (CRAF; H82 proteomes): potent activity against CRAF
adverse side effects [7]: lack of adverse side effects
half-life ([7]; oral): ~40 h
blockade of recombinant RAF1 activity (recombinant RAF1): concentrations dependent blockade of recombinant RAF1 activity
cell death (WST-1) (H82 cells [8]; 5 μM, two days): ~50%
cell death after 1 day (WST-1) (H82 cells [8]; 25 μM, 1 day): > 50%
inhibition at 25 µM (H82 cells [8]; Homo sapiens, NCI-H82, 48 h, 25 μM, two days, read-out: inhibition of cell growth (WST-1)): > 70%
cell viability (WST-1), words (H82 cells [8]): Concentration-dependent decreases in viability
cell death (WST-1) (H1650 cells [9]; 5 μM, two days): 5-15%
cell death after 1 day (WST-1) (H1650 cells [9]; 25 μM, 1 day): > 50%
inhibition at 25 µM (H1650 cells [9]; Homo sapiens, NCI-H1650, 48 h, 25 μM, two days, read-out: inhibition of cell growth (WST-1)): > 70%
cell viability (WST-1), words (H1650 cells [9]): Concentration-dependent decreases in viability
cell death (WST-1) (A549 cells [10]; 5 μM, two days): 5-15%
cell death after 1 day (WST-1) (A549 cells [10]; 25 μM, 1 day): > 50%
inhibition at 25 µM (A549 cells [10]; Homo sapiens, A549, 48 h, 25 μM, two days, read-out: inhibition of cell growth (WST-1)): > 70%
cell viability (WST-1), words (A549 cells [10]): Concentration-dependent decreases in viability

CRAF ATP acyl-phosphate labeling response (words, FIG. 20) (CRAF): inactivates CRAF
SMILES: Fc1ccc(C(=C2CCNCC2)c2ccc(F)cc2)cc1 [RF001, 4-(Bis(4-fluorophenyl)methylene) piperidine]

blockade of recombinant RAF1 activity (recombinant RAF1): not ketanserin
SMILES: O=C(c1ccc(F)cc1)C1CCN(CCn2c(=O)[nH]c3ccccc3c2=O)CC1 [Ketanserin]
cell killing (live cell counts) (H82 cells [1]): not ketanserin
cell killing (live cell counts) (H1650 cells [2]): not ketanserin
cell killing (live cell counts) (A549 cells [3]): not ketanserin
caspase 3/7 activity (H82 cells [4]): did not induce these effects
caspase 3/7 activity (H1650 cells [5]): did not induce these effects
caspase 3/7 activity (A549 cells [6]): did not induce these effects
cell viability (WST-1), words (H82 cells [8]): lack of activity
cell viability (WST-1), words (H1650 cells [9]): lack of activity
cell viability (WST-1), words (A549 cells [10]): lack of activity
